In patent US9254296B2, “Pharmaceutical composition comprising vitamin D analogue and cosolvent-surfactant mixture” (LEO PHARMA A/S, priority 2009, dated 2016):

Columns and labels:
[1] = test system: IL-1α; assay: Release of IL-1α from calcipotriol ointment containing glycerol; conditions: 5%, 10%, 15% by weight of glycerol in a calcipotriol ointment
[2] = test system: gene encoding cathelicidin; assay: Cathelicidin target gene activation assay on reconstructed human epidermis; type: cell-based; conditions: 5%, 10% or 15% by weight of glycerol in the composition
Description: In psoriasis, the level of cathelicidin is increased in lesional skin of psoriasis patients. […] This finding has been utilized to develop an assay in which the uptake and biological activity of calcipotriol in human keratinocytes from the tested compositions has been determined by measuring the level of induction of the gene encoding cathelicidin.
In the assay, compositions A, B, C, F, G, I, J, K, L prepared as described in Example 1 above were applied topically in triplicate on reconstructed human epidermis consisting of normal human keratinocytes cultured for 12 days on 0.5 cm^2 polycarbonate filters (available from SkinEthic® Laboratories, Nice, France) in an amount of 10 μl. The tissue was treated for two days followed by separation of the epidermis from the polycarbonate filter and snap-frozen in liquid nitrogen. RNA was extracted from the cells and cDNA synthesized by conventional procedures. Quantitative real-time PCR (qPCR) was then performed using the following assays from Applied Biosystems: CAMP Hs0018038_ml and GAPDH Hs99999905_ml. The expression levels of cathelicidin were normalized to GAPDH and a relative quantification was made by comparison with Daivonex® ointment.

[3] = one study, M. Hannuksela et al. 1975; cited from earlier work

SMILES | release of IL-1α [1] | effect on biological activity of calcipotriol (expression of cathelicidin) [2] | number of irritant reactions [3]
OCC(O)CO [glycerol] | reduce the release of IL-1α in a dose-dependent manner | potentiating the biological activity of calcipotriol | 
CC(O)CO (stereo not drawn) [propylene glycol] |  |  | 12.5%
